Measured values as given in US12076323B2, “Treatment of hair loss disorders with deuterated JAK inhibitors” (Sun Pharmaceutical Industries, Inc., priority 2016, dated 2024).
Where two headings read alike, the source gives them in different places.

Experiments:
[1] = Metabolic stability using human liver microsomes; format: in vitro ADME; details: 0.25 μM test compound, 2 mM NADPH, 37° C.
Method: Deuterated test compounds were supplied by Concert Pharmaceuticals.
A 10 μL aliquot of the 12.5 μM test compound was added to the microsomes and the mixture was pre-warmed for 10 minutes.
Data analysis was performed using Microsoft Excel Software.

[2] = Single Ascending Dose (SAD) study, pharmacokinetics in healthy volunteers; format: in vivo, human; details: fasted; for AUC(0-inf) / Cmax / half-life / AUC(0-t) / concentration at 24 h / Vd/F / Tmax: human, in vivo, oral; for AUC(0-inf) / Cmax / half-life / AUC(0-t) / concentration at 24 h / Vd/F / CL/F: arithmetic mean; for AUC(0-t): read-out: AUC0-24hr; for concentration at 24 h: read-out: C24hr; for Vd/F: read-out: Vz/F; for Tmax: median
[3] = Multiple Ascending Dose (MAD) study, pharmacokinetics in healthy volunteers; format: in vivo, human; details: for Cmax / half-life / AUC(0-t) / concentration at 12 h / Tmax / concentration at 24 h: human, in vivo, oral; for Cmax / half-life / AUC(0-t) / concentration at 12 h / concentration at 24 h: arithmetic mean; for concentration at 12 h: read-out: C12hr; for Tmax: median; for concentration at 24 h: read-out: C24hr
[4] = Combined SAD and MAD (Phase 1) studies, safety and tolerability; format: in vivo, human
Method: In the combined SAD and MAD studies, a total of 77 subjects were dosed (60 received CTP-543; 17 received placebo).

[5] = system: IL-6-stimulated phosphorylated STAT3 (pSTAT3); test: Pharmacodynamic analysis in MAD study: IL-6-stimulated pSTAT3; format: in vivo, human; details: all treatment groups
Method: (§1) Pharmacodynamic analyses were also performed during the MAD study of the Phase 1 trial to assess the inhibition of IL-6- and IFN-γ-mediated JAK/STAT signaling.

[6] = system: IFN-γ-mediated STAT1 signaling; test: Pharmacodynamic analysis in MAD study: IFN-γ-mediated STAT1 signaling; format: in vivo, human; details: disease-relevant immune cell types, all doses evaluated
Method: as §1

[7] = single dose 8 mg as phosphate salt, n = 6
[8] = single dose 16 mg as phosphate salt, n = 6
[9] = single dose 32 mg as phosphate salt, n = 6
[10] = single dose 48 mg as phosphate salt, n = 5

[2H]C1([2H])C([C@@H](CC#N)n2cc(-c3ncnc4[nH]ccc34)cn2)C([2H])([2H])C([2H])([2H])C1([2H])[2H] [Compound (I), (R)-3-(4-(7H-pyrrolo[2,3-d]pyrimidin-4-yl)-1H-pyrazol-1-yl)-3-(cyclopentyl-2,2,3,3,4,4,5,5-d8)propanenitrile]
t1/2 longer than the t1/2 of non-deuterated ruxolitinib [1]: about 75% | AUC(0-inf) [2, 7]: 589 ng·h/mL | Cmax [2, 7]: 118 ng/mL | half-life [2, 7]: 3.14 h | AUC(0-t) [2, 7]: 584 ng·h/mL | concentration at 24 h [2, 7]: 1.02 ng/mL | Vd/F [2, 7]: 64.1 L | Tmax [2, 7]: 1.25 h | AUC(0-inf) [2, 8]: 1350 ng·h/mL | Cmax [2, 8]: 260 ng/mL | half-life [2, 8]: 3.32 h | AUC(0-t) [2, 8]: 1330 ng·h/mL | concentration at 24 h [2, 8]: 2.77 ng/mL | Vd/F [2, 8]: 61 L | AUC(0-inf) [2, 9]: 2460 ng·h/mL | Cmax [2, 9]: 535 ng/mL | half-life [2, 9]: 3.52 h | AUC(0-t) [2, 9]: 2420 ng·h/mL | concentration at 24 h [2, 9]: 5.6 ng/mL | Vd/F [2, 9]: 68.4 L | Tmax [2, 9]: 1.25 h | AUC(0-inf) [2, 10]: 4160 ng·h/mL | Cmax [2, 10]: 853 ng/mL | half-life [2, 10]: 3.61 h | AUC(0-t) [2, 10]: 4100 ng·h/mL | concentration at 24 h [2, 10]: 9.26 ng/mL | Vd/F [2, 10]: 63.2 L | CL/F [2, 7]: 14.92 L/h | CL/F [2, 8]: 13.87 L/h | CL/F [2, 9]: 13.88 L/h | CL/F [2, 10]: 12.75 L/h | average systemic exposure versus published average reported exposure of 20 mg BID ruxolitinib ([3]; 16 mg BID of Compound (I)): comparable | Cmax ([3]; 8 mg, 8 mg BID, Day 1, n = 4): 160 ng/mL | half-life ([3]; 8 mg, 8 mg BID, Day 1, n = 4): 3.77 h | AUC(0-t) ([3]; 8 mg, 8 mg BID, Day 1, n = 4, read-out: AUCtau/AUC0-12hr): 703 ng·h/mL | concentration at 12 h ([3]; 8 mg, 8 mg BID, Day 1, n = 4): 13.7 ng/mL | Tmax ([3]; 8 mg, 8 mg BID, Day 1, n = 4): 1 h | Cmax ([3]; 8 mg, 8 mg BID, Day 7, n = 4): 183 ng/mL | half-life ([3]; 8 mg, 8 mg BID, Day 7, n = 4): 4.2 h | AUC(0-t) ([3]; 8 mg, 8 mg BID, Day 7, n = 4, read-out: AUCtau/AUC0-12hr): 844 ng·h/mL | concentration at 12 h ([3]; 8 mg, 8 mg BID, Day 7, n = 4): 13.2 ng/mL | Cmax ([3]; 8 mg, 8 mg QD, Day 1, n = 7): 156 ng/mL | half-life ([3]; 8 mg, 8 mg QD, Day 1, n = 7): 3.23 h | AUC(0-t) ([3]; 8 mg, 8 mg QD, Day 1, n = 7, read-out: AUCtau/AUC0-24hr): 704 ng·h/mL | concentration at 24 h ([3]; 8 mg, 8 mg QD, Day 1, n = 7): 0.86 ng/mL | Tmax ([3]; 8 mg, 8 mg QD, Day 1, n = 7): 1 h | Cmax ([3]; 8 mg, 8 mg QD, Day 7, n = 7): 151 ng/mL | half-life ([3]; 8 mg, 8 mg QD, Day 7, n = 7): 3.51 h | AUC(0-t) ([3]; 8 mg, 8 mg QD, Day 7, n = 7, read-out: AUCtau/AUC0-24hr): 668 ng·h/mL | concentration at 24 h ([3]; 8 mg, 8 mg QD, Day 7, n = 7): 1.01 ng/mL | Tmax ([3]; 8 mg, 8 mg QD, Day 7, n = 7): 1 h | Cmax ([3]; 16 mg, 16 mg BID, Day 1, n = 8): 290 ng/mL | half-life ([3]; 16 mg, 16 mg BID, Day 1, n = 8): 2.89 h | AUC(0-t) ([3]; 16 mg, 16 mg BID, Day 1, n = 8, read-out: AUCtau/AUC0-12hr): 1060 ng·h/mL | concentration at 12 h ([3]; 16 mg, 16 mg BID, Day 1, n = 8): 15.3 ng/mL | Tmax ([3]; 16 mg, 16 mg BID, Day 1, n = 8): 1 h | Cmax ([3]; 16 mg, 16 mg BID, Day 7, n = 8): 288 ng/mL | half-life ([3]; 16 mg, 16 mg BID, Day 7, n = 8): 3.53 h | AUC(0-t) ([3]; 16 mg, 16 mg BID, Day 7, n = 8, read-out: AUCtau/AUC0-12hr): 1130 ng·h/mL | concentration at 12 h ([3]; 16 mg, 16 mg BID, Day 7, n = 8): 16.5 ng/mL | Tmax ([3]; 16 mg, 16 mg BID, Day 7, n = 8): 0.75 h | Cmax ([3]; 24 mg, 24 mg QD, Day 1, n = 8): 384 ng/mL | half-life ([3]; 24 mg, 24 mg QD, Day 1, n = 8): 3.14 h | AUC(0-t) ([3]; 24 mg, 24 mg QD, Day 1, n = 8, read-out: AUCtau/AUC0-24hr): 1670 ng·h/mL | concentration at 24 h ([3]; 24 mg, 24 mg QD, Day 1, n = 8): 2.48 ng/mL | Tmax ([3]; 24 mg, 24 mg QD, Day 1, n = 8): 0.5 h | Cmax ([3]; 24 mg, 24 mg QD, Day 7, n = 8): 310 ng/mL | half-life ([3]; 24 mg, 24 mg QD, Day 7, n = 8): 3.5 h | AUC(0-t) ([3]; 24 mg, 24 mg QD, Day 7, n = 8, read-out: AUCtau/AUC0-24hr): 1530 ng·h/mL | concentration at 24 h ([3]; 24 mg, 24 mg QD, Day 7, n = 8): 3.39 ng/mL | Tmax ([3]; 24 mg, 24 mg QD, Day 7, n = 8): 1 h | Cmax ([3]; 32 mg, 32 mg QD, Day 1, n = 8): 509 ng/mL | half-life ([3]; 32 mg, 32 mg QD, Day 1, n = 8): 2.86 h | AUC(0-t) ([3]; 32 mg, 32 mg QD, Day 1, n = 8, read-out: AUCtau/AUC0-24hr): 2220 ng·h/mL | concentration at 24 h ([3]; 32 mg, 32 mg QD, Day 1, n = 8): 2.95 ng/mL | Tmax ([3]; 32 mg, 32 mg QD, Day 1, n = 8): 0.75 h | Cmax ([3]; 32 mg, 32 mg QD, Day 7, n = 8): 492 ng/mL | AUC(0-t) ([3]; 32 mg, 32 mg QD, Day 7, n = 8, read-out: AUCtau/AUC0-24hr): 2100 ng·h/mL | concentration at 24 h ([3]; 32 mg, 32 mg QD, Day 7, n = 8): 5.12 ng/mL | Tmax ([3]; 32 mg, 32 mg QD, Day 7, n = 8): 0.75 h | accumulation with repeated dosing ([3]; repeated dosing, seven consecutive days): did not accumulate | tolerability ([4]; Phase 1 study): generally well tolerated | cases of mild neutropenia ([4]; combined SAD and MAD studies): resolved or trended toward recovery after dosing completion | most common adverse event reported ([4]; combined SAD and MAD studies): headache | severe neutropenia (Grade 3 or 4) ([4]; combined SAD and MAD studies): not observed | withdrawal or dose modification related to CTP-543 ([4]; combined SAD and MAD studies): No withdrawal or dose modification | serious adverse events ([4]; combined SAD and MAD studies, 60 subjects received CTP-543): No serious adverse events were reported | absorption ([4]; combined SAD and MAD studies, oral): rapidly absorbed | IL-6-stimulated phosphorylated STAT3 (pSTAT3) ([5]; MAD study): dose-related reduction | pSTAT3 inhibition at 24 hours post-dose ([5]; 24 hours post-dose): returned to approximate baseline values | IFN-γ-mediated STAT1 signaling [6]: significantly inhibited
